Results: article PMC4728560 (Scientific Reports, 2016)

Tested on: BAX
Experiment: In cellulo BRET between TCTP and YFP-fused BAX
Assay type: cell-based
Conditions: MCF-7 cells; donor TCTP, acceptor YFP-fused BAX
Experimental: BRET assays were performed as indicated in Bah et al.[41]. See Supplementary Information for full details.
-3Δ before cloning into a pnEA -TH plasmid for expression of an N-terminal 6His fusion protein using NdeI and BamHI restriction sites25. The cDNA of human Bcl-xL protein, target gene bank number BC019307, was ordered from PlasmID (DANA-FARBER/HARVARD CANCER CENTER). Bcl-xL(Δ27-81ΔCT) (deletion of residues 27-81 and C-terminal 24 residues) was cloned in a pnEA-TH25 plasmid for expression as a N-terminal 6His fusion protein. Primers used for the deletion of the C-terminal part are 5'- […]
TTTCG-3', including NdeI and BglII restriction sites respectively. […]
BRET assays were performed as indicated in Bah et al.26. […] Light emissions at 475 nm and 530 nm were measured sequentially using the Mithras ﬂuorescence luminescence detector […]
LB 940 (Berthold, Thoiry, France) after adding the luciferase substrate coelenterazine H (Uptima, MontLucon, France) at a ﬁnal concentration of […]. BRET signals (mB.U,milliBRET Unit) were determined by calculating the ra tio of the light emitted by the acceptor (530 nm) over the light emitted by the donor (475 nm). Background BRET signals, determined by transient transfection of pCMV-Bcl-xL or pCMV-Bax instead of the corresponding pEYFP plasmids, were subtracted from YFP-specific BRET signals. […]

With “TCTP: Translationally Controlled Tumor Protein (TCTP/tpt1), recombinant full-length” the “BRET signals with BAX” value was “no specific BRET signals”.
